Measured values: US7473708B2, “Agents with leukotriene B4-like antiviral (enveloped RNA) activities” (priority 1996, dated 2009)

How the values were obtained:
EBV [1] = experiment: Detection of Epstein-Barr Nuclear Antigen (EBNA) in EBV-infected PBMC (ACIF test); format: cell-based, human; conditions: 100 nM analog, PBMC, six days, EBNA by ACIF
Experimental: After ten days of culture, cells were harvested for determination of the presence of Epstein-Barr Nuclear Antigen (EBNA), a consequence of EBV infection. Preparation of cell smears, fixation and detection of EBNA by the anti-complement immunofluorescence (ACIF) test were carried out as described by Reedman B. M. and Klein G. (Int. J. Cancer, 1973, 11:499). Smears were prepared by spreading 50 μl of a concentrated suspension of washed cells (2×10^6/ml) on clean slides, air dried and fixed in cold acetone (−20° C.) during 10 minutes. Human serum (50 μl) from EBV seropositive donor was used as a source of complement. Slides were incubated at room temperature in a humid chamber during 45 minutes. Slides were then washed three times in phosphate buffer saline (PBS) and stained with 50 μl of fluorescein-5-isothiocyanate (FITC “Isomer I”)-conjugated goat IgG fraction anti-human complement C3 (Cappel Research Products, Durham, N.C.) during 60 minutes at room temperature in a humid chamber. Slides were washed in PBS (3 times), mounted in PBS:glycerol 1:1 and examined. Raji and U937 cells were used as positive and negative controls, respectively. The percentage of EBNA-positive cells was decreased by more than 55% with 30 nM LTB4, and by more than 70% with 100 nM LTB4 (FIG. 2). The results illustrated in FIG. 2 are representative of six (6) other experiments.
(§1) PBMC were infected with EBV and HSV-1 and treated or not with 100 nM of analogs of LTB4 such as 20-OH-LTB4, LTA3 methyl ester, 12(R)-HETE and 5(S), 15(S)-diHETE. After six days of culture, the presence of EBNA antigen (a consequence of EBV infection) was evaluated by the ACIF test, as described in Example I. Similarly, the presence of HSV-1 antigen in PBMC was evaluated by immunofluorescence using an antiserum obtained from a chronically infected donor as described above in section entitled “Detection of Specific HSV-1 Antigen”. […] The results illustrated in Table 1 are representative of three other experiments.

HSV-1 (strain McIntyre) = experiment: Detection of specific HSV-1 antigen in HSV-1-infected PBMC (immunofluorescence); format: cell-based, human; conditions: 100 nM analog, six days, antiserum immunofluorescence
Experimental: Synthesis of the viral antigen was inhibited by 60% in the presence of 100 nM LTB4 (FIG. 4). The results illustrated in FIG. 4 are representative of five (5) other experiments.
as §1

EBV [2] = conditions: in vitro, read-out: IC50, viral replication; cited from earlier work
HSV = conditions: in vitro, read-out: IC50, viral replication; cited from earlier work

Row | Compound | EBV infection, percentage of inhibition compared to infected PBMC cultured in the absence of analogs (EBV [1]) [%] | HSV-1 infection, percentage of inhibition compared to infected PBMC cultured in the absence of analogs (HSV-1 (strain McIntyre)) [%] | IC50 (EBV [2]) [nM] | IC50 (HSV) [nM]
1 | CCCCC/C=C\C[C@@H](O)/C=C/C=C\C/C=C\CCCC(=O)O [12(R)-HETE, 12(R)-hydroxy-5,8,10,14(Z,Z,E,Z)-eicosatetraenoic acid] | 65 | 70 | – | –
2 | CCCCC[C@H](O)/C=C/C=C\C/C=C\C=C\[C@@H](O)CCCC(=O)O [5(S),15(S)-diHETE, 5(S),15(S)-dihydroxy-6,8,11,13-(E,Z,Z,E)-eicosatetrae-noic acid] | 50 | – | – | –
3 | CCCCCCCC\C=C/C=C/C=C/[C@@H]1O[C@H]1CCCC(=O)OC [LTA3 methyl ester, 14,15-dihydro-LTA4 methyl ester] | 65 | 60 | – | –
4 | O=C(O)CCC[C@H](O)\C=C/C=C/C=C/[C@H](O)C/C=C\CCCCCO [20-OH-LTB4, 20-hydroxy-LTB4] | – | 74 | – | –
5 | Nc1nc(O)c2ncn(COC(CO)CO)c2n1 [ganciclovir] | – | – | 1000 | 2400
